Biological target: Voltage-dependent L-type calcium channel subunit alpha-1C (Oryctolagus cuniculus, UniProt P15381)
Assay: ChEBML_164619
Excerpt: Blockade of calcium-evoked contractions in depolarized aortic strips

Sequence of Voltage-dependent L-type calcium channel subunit alpha-1C (P15381 whole entry): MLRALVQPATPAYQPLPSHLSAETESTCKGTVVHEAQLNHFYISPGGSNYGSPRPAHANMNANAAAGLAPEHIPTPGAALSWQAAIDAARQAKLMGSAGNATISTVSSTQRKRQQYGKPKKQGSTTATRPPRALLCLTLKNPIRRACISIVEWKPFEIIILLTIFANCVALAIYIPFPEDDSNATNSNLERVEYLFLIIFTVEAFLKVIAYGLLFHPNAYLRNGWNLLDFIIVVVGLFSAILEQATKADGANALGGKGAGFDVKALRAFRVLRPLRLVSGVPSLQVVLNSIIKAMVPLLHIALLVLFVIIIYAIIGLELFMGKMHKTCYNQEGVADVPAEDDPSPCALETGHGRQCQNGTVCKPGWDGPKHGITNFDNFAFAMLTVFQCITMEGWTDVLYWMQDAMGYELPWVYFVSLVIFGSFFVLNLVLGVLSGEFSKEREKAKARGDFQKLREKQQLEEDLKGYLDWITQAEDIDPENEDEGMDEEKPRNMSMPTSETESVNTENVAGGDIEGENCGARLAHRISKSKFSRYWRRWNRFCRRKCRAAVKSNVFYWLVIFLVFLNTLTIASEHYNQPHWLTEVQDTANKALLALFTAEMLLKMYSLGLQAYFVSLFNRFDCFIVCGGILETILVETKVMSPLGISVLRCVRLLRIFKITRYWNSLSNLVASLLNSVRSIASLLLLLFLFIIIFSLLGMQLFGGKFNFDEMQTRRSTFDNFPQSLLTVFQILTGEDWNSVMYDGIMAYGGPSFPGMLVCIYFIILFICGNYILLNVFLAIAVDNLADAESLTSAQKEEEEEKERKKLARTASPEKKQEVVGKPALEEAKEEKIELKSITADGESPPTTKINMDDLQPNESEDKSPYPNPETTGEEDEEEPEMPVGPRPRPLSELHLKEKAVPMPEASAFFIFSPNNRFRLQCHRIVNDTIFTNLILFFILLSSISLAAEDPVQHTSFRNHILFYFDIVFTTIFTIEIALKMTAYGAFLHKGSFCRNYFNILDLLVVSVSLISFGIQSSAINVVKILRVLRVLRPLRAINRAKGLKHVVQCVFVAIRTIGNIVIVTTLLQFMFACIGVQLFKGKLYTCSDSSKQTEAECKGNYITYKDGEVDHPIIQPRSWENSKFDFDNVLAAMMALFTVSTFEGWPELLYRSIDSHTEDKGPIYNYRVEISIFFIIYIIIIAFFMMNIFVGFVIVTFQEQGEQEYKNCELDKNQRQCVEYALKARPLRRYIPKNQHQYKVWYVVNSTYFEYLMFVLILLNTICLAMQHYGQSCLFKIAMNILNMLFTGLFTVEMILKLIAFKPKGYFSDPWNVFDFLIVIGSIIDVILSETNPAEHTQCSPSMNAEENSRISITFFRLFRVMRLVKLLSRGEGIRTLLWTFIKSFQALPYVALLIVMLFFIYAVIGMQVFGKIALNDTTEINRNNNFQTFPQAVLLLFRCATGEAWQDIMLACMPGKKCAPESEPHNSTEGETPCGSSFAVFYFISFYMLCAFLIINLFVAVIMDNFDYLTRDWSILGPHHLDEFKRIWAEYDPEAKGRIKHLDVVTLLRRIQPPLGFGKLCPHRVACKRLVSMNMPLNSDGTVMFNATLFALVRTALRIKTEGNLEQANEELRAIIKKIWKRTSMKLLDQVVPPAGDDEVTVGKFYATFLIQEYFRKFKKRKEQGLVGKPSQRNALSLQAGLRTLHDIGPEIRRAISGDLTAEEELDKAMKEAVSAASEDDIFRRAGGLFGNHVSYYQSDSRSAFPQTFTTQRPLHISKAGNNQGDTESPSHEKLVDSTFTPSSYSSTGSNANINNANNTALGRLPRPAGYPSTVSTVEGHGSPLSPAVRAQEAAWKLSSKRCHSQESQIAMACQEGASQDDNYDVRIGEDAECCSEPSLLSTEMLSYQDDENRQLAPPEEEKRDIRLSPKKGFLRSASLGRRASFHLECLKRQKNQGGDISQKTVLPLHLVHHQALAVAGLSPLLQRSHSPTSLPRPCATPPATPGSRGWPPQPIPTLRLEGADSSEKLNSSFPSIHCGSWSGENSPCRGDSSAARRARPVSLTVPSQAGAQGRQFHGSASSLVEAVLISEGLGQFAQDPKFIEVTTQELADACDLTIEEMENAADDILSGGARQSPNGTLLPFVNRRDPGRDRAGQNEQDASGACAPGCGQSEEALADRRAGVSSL

Molecule `COCCOC(=O)C1C(C)=NC(C)=C(C(=O)OCN2C(=O)c3ccccc3S2(=O)=O)C1c1cccc(Cl)c1Cl` (centres undefined) has an IC50 of 2.9 nM.
For `CC1=NC(C)=C(C(=O)OCC2CCCCO2)C(c2ccccc2[N+](=O)[O-])C1=C(O)OCN1C(=O)c2ccccc2S1(=O)=O` (centres undefined), the IC50 was 25 nM.
`COC(=O)C1C(C)=NC(C)=C(C(=O)OCN2C(=O)c3ccccc3S2(=O)=O)C1c1cccc(Cl)c1Cl` (centres undefined) was tested, and the IC50 was 5.1 nM.
Work on `CC1=NC(C)=C(C(=O)OCC2CCCO2)C(c2cccc([N+](=O)[O-])c2)C1=C(O)OCN1C(=O)c2ccccc2S1(=O)=O` (centres undefined) yielded an IC50 of 25 nM.
